In one experiment the test system is H. influenzae. In words: minimum inhibitory concentration (MIC). The format is cell-based. The settings on record: Haemophilus influenzae.
Experiment [1] has as its system bacteria that carry a DNA relaxation-stimulated lacZ gene on a plasmid (pRAS101, 19.4, pSB2.his). In words: plate lawn technique on X-Gal medium (blue ring). The format is cell-based, E. coli. The conditions noted are these: spotted onto lawn of bacteria, overnight growth at 37° C.; clones pRAS101, 19.4 and pSB2.his similar. From the text:
The principle of the screen is based on the observation that if known gyrase inhibitors are spotted onto X-Gal medium containing bacteria that carry a DNA relaxation-stimulated lacZ gene on a plasmid, clear zones of inhibition surrounded by a blue ring are formed after overnight growth. The blue ring presumably forms at the drug concentration where optimum relaxation-stimulation of the reporter gene has occurred before the cells are killed.
The following three clones were used: a) clone pRAS101 containing the gyrA promoter linked to the β-galactosidase gene; b) clone 19.4 (found by method described in section 3.3); and c) clone pSB2.his containing the hisD promoter linked to the β-galactosidase gene.
Cultures were grown overnight and diluted 1:1000 in (melted) L-agar cooled to 45° C. containing 50 μg/mL Ap and 60 μg/mL X-Gal. The medium was poured into 15×150 mm petri dishes immediately. After it had solidified, known gyrase inhibitors were applied automatically onto the solid agar surface using a Tomtec Quadra 96 machine as follows: 20 μg nalidixic acid (Nx), 100 μg novobiocin (Novo), 2 μg ciprofloxacin (Cipro), 10 μg coumermycin (Cou), 2 μg cinoxacin (Cinox), 2 μg pefloxacin (Pef), 2 μg fleroxacin (Fle), 2 μg flumequine (Flu) and 2 μg norfloxacin (Nor). […]

Experiment [2] concerns clone 19.4 (relaxation-stimulated promoter upstream of lacZ in pSB2). Briefly: microtiter plate β-galactosidase assay, clone 19.4. The format is cell-based, E. coli. The conditions noted are these: nalidixic acid 200 μg/ml, 2 hours at 37° C., treated vs control culture. The source says:
The T4 terminator (T4 t) and lacZ gene were inserted into a plasmid expression vector pTB244 to create the construct pSB2. In this construct, the transcription of the lacZ gene, without a promoter, is prevented by the upstream T4 terminator, such that insertion of a promoter is necessary for lacZ expression. A random E. coli DNA library was constructed by inserting Escherichia coli chromosomal Sau3A fragments into the BamHI site of the screening vector pSB2, upstream of the promoter-less lacZ gene.
The library was transformed into the lacZ^− E. coli host strain MSD1011 (MM294 Δlac=E. coli K12 hsdR Δlac). […] Blue transformants were screened for the presence of relaxation-stimulated promoters using the microtiter plate β-galactosidase assay.
The β-galactosidase assays were carried out in 96-well, flat bottom microtiter plates. Blue (lacZ^+) ampicillin-resistant colonies of all sizes and shades of blue were purified, inoculated into 200 μl media (L-broth containing 50 μg/ml ampicillin) and incubated overnight at 37° C. […] Before carrying out the β-galactosidase assay, absorbance WAS read automatically on the Molecular Devices Microplate Reader at 595 nm in order to measure the differences in the cell titers between control and treated cultures. […] The plates were read at 28° C. on a Molecular Devices Microplate Reader at 420 nm for 2 mins at 0.09 sec intervals.

Experiment [3] deals with pRAS101, gyrA promoter linked to a lacZ gene. In words: microtiter plate β-galactosidase assay, pRAS101 positive control. The format is cell-based, E. coli. The settings on record: nalidixic acid 200 μg/ml, 2 hours at 37° C. The method, then: The β-galactosidase assays were carried out in 96-well, flat bottom microtiter plates. Blue (lacZ^+) ampicillin-resistant colonies of all sizes and shades of blue were purified, inoculated into 200 μl media (L-broth containing 50 μg/ml ampicillin) and incubated overnight at 37° C. Cultures were then diluted 1:20 into fresh broth and incubated for 1.5 hours at 37° C. with shaking at 230 rpm to mid log phase. At this point half of each culture was transferred to a duplicate microtitre plate to which nalidixic acid had been added to give a final concentration of 200 μg/ml. Both plates were incubated at 37° C. for 2 hours to allow expression of the reporter gene that was then assayed. Before carrying out the β-galactosidase assay, absorbance WAS read automatically on the Molecular Devices Microplate Reader at 595 nm in order to measure the differences in the cell titers between control and treated cultures. 25 μl of β-galactosidase assay emulsion (prepared as follows: 5 mL ONPG (O-nitrophenyl-β-D-galactopyranodside) at 4 mg/ml, 5 mL 1× Z-buffer, 0.3 mL 1% SDS, 0.2 mL chloroform, 0.2 mL ether), was added to each well. The plates were read at 28° C. on a Molecular Devices Microplate Reader at 420 nm for 2 mins at 0.09 sec intervals. […]

Values after ≈ are worked out from the molar mass of the structure shown. Read-outs that look alike come from different tables or passages of the source.

Turning to `CO[C@@H]1[C@@H](OC(N)=O)[C@@H](O)[C@H](Oc2ccc3c(O)c(NC(=O)c4ccc(O)c(CC=C(C)C)c4)c(=O)oc3c2C)OC1(C)C` [novobiocin], in the experiment on H. influenzae, the MIC worked out at 0.125 mg/L (≈ 0.204 µM).

Turning to `O=C(N[C@H](CO)[C@H](O)c1ccc([N+](=O)[O-])cc1)C(Cl)Cl` [chloramphenicol], the “stimulation of the DNA relaxation-stimulated reporter gene (blue ring)” value in experiment [1] is reported as “little to no stimulation”.

For `CC1(C)S[C@@H]2[C@H](NC(=O)[C@H](N)c3ccccc3)C(=O)N2[C@H]1C(=O)O` [ampicillin], in the experiment with H. influenzae (measured MIC against H. influenzae, read-out: MIC), the MIC stood at 0.125 mg/L (≈ 0.358 µM).

As for `CCn1cc(C(=O)O)c(=O)c2ccc(C)nc21` [nalidixic acid], in experiment [2], the “relaxation stimulated transcription ratio” value stood at 6.1. In addition, in experiment [3], the “stimulation ratio (average)” value came to 3.1 fold.
